Test results as given in US20260138976A1 (Hoffmann-La Roche Inc., priority 2022, published 2026).

Assays:
[1] = target: T1, DGKα (hDGKalpha(1-735)-N-His) (Homo sapiens, UniProt P23743); test: In vitro DGK inhibition assay, DGKalpha ADP Glo (in house); format: biochemical; conditions: 4 nM DGKα, 25 μM ATP, 125 uM DLG in liposomes, 1 hour reaction
T1 construct: hDGKalpha(1-735)-N-His; His (N); made in house; host or cells: Sf21 insect cells (baculovirus)
Summary of the method: (§1)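 Full-length His-tagged human DGKα (4 nM) or DGKζ (2 nM), expressed in Sf21 cells, phosphorylated 125 µM DLG in PS/PC liposomes with ATP at 25 µM (α) or 50 µM (ζ) for 1 h. ADP was measured by ADP-Glo luminescence. Compounds were tested as 11-point 1:3 series in 2% DMSO.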

[2] = target: T2, DGKζ (hDGKzeta(1-928)-N-His) (Homo sapiens, UniProt Q13574); test: In vitro DGK inhibition assay, DGKzeta ADP Glo (in house); format: biochemical; conditions: 2 nM DGKζ, 50 μM ATP, 125 uM DLG in liposomes, 1 hour reaction
T2 construct: hDGKzeta(1-928)-N-His; His (N); made in house; host or cells: Sf21 insect cells (baculovirus)
T2 sequence (Q13574 whole entry): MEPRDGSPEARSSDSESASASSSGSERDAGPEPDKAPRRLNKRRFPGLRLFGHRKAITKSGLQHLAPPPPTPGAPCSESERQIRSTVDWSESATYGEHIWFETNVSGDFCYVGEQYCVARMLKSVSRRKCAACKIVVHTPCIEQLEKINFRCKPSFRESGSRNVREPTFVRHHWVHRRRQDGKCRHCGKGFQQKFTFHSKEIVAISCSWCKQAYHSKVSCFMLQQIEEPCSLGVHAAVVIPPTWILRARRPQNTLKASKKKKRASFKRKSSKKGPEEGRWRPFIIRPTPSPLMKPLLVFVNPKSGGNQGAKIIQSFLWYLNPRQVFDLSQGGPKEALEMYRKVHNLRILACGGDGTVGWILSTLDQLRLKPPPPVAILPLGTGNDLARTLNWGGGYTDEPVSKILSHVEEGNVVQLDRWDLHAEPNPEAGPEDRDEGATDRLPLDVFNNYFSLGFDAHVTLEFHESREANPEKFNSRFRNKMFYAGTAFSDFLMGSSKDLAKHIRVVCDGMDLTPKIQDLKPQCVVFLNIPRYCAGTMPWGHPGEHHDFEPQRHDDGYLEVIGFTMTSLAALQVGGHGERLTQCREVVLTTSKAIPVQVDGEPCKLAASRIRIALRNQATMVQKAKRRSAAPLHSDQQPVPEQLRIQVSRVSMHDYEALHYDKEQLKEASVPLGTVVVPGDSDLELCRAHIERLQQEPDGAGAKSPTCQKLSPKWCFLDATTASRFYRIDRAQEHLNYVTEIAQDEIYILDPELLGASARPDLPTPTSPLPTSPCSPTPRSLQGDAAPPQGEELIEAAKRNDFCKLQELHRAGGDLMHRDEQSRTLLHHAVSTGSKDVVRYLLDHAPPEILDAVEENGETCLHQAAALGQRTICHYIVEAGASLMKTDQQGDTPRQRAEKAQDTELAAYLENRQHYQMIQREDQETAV
Summary of the method: as §1

primary human T-cells = test: IL2 secretion measurements (24 h, CD3-stimulated T-cells, PBS counter screen); format: cell-based; conditions: for Emax IL2 (% activation): CD3 condition, normalised to DMSO (neutral) and 20 μM reference compound A1 = 100%; for EC50: Homo sapiens, T-cell, CD3-stimulated primary human T-cells, IL2 secretion, fitted sigmoidal curve, read-out: Tcell IL2 CD3 EC50
Summary of the method: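 Expanded primary human T-cells (100k/well) were plated on anti-CD3-coated or PBS-only plates with compound in a 5–6 point dose response (top 20 or 10 μM final, 3.333-fold, 0.2% DMSO). IL-2 in 24 h supernatants was quantified by ProQuantum immunoassay or ELISA. Values were normalized to DMSO and 20 μM reference compound A1 (100%), giving EC50 and Emax.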

T1 sequence (P23743 whole entry): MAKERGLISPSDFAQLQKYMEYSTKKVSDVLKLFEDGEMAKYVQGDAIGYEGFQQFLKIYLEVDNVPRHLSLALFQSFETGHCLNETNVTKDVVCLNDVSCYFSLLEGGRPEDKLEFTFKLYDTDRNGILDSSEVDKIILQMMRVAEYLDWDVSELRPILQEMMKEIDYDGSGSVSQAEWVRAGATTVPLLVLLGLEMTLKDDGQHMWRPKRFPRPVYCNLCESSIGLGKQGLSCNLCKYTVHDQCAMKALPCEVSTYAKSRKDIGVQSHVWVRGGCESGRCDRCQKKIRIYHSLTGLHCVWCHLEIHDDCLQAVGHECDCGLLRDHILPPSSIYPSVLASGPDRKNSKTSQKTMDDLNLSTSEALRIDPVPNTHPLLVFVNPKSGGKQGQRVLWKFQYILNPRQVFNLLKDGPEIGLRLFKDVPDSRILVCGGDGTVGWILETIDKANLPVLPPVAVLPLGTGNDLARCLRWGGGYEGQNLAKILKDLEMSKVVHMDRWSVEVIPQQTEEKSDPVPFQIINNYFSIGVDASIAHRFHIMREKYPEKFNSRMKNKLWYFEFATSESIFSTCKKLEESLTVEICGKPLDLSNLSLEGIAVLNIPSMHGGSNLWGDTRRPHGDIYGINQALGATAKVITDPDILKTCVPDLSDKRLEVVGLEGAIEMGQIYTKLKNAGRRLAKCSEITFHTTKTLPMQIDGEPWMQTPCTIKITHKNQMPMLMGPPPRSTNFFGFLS

IC50 [1] [µM] | IC50 [2] [µM] | SMILES | Emax IL2 (% activation) (primary human T-cells) | EC50 (primary human T-cells) [µM]
> 62.5 | 0.2 | CCN1CC(c2nnc(-c3ccc4c(c3)N(Cc3ccc(-c5noc(C(C)(C)C)n5)cc3)C(=O)[C@@H](N)CS4(=O)=O)o2)CC(F)(F)C1 (stereo partly drawn) [Example 181, (3R)-3-amino-5-[[4-(5-tert-butyl-1,2,4-oxadiazol-3-yl)phenyl]methyl]-7-[5-(1-ethyl-5,5-difluoro-3-piperidyl)-1,3,4-oxadiazol-2-yl]-1,1-dioxo-2,3-dihydro-1λ^6,5-benzothiazepin-4-one] | 66 | 6.89
> 62.5 | 2 | COCCN1CC(c2nnc(-c3ccc4c(c3)N(Cc3ccc(-c5noc(C(F)(F)F)n5)cc3)C(=O)[C@@H](N)CS4(=O)=O)o2)CC(F)(F)C1 (stereo partly drawn) [Example 182, (3R)-3-amino-7-[5-[5,5-difluoro-1-(2-methoxyethyl)-3-piperidyl]-1,3,4-oxadiazol-2-yl]-1,1-dioxo-5-[[4-[5-(trifluoromethyl)-1,2,4-oxadiazol-3-yl]phenyl]methyl]-2,3-dihydro-1λ^6,5-benzothiazepin-4-one] | 149 | 3.26
> 62.5 | 0.97 | COCCN1CC(c2nnc(-c3ccc4c(c3)N(Cc3ccc(-c5ccc(OC)cc5)cc3)C(=O)[C@@H](N)CS4(=O)=O)o2)CC(F)(F)C1 (stereo partly drawn) [Example 183, (3R)-3-amino-7-[5-[5,5-difluoro-1-(2-methoxyethyl)-3-piperidyl]-1,3,4-oxadiazol-2-yl]-5-[[4-(4-methoxyphenyl)phenyl]methyl]-1,1-dioxo-2,3-dihydro-1λ^6,5-benzothiazepin-4-one] | 69 | 6.44
